Earlier results, collected in patent US20030180823A1, “Individualization of therapy with antihistamines” (Xanthus Life Sciences, Inc., priority 2001, published 2003).

Tested on: skin tests
Conditions: very long half-life

COc1ccc(CCN2CCC(Nc3nc4ccccc4n3Cc3ccc(F)cc3)CC2)cc1 [Astemizole]
duration of inhibiting skin tests: up to 6 weeks
